Values of other authors as cited in patent publication US20070020642A1, “Structural interaction fingerprint” (priority 2003, published 2007).

Target: p38 (Homo sapiens, UniProt Q16539)
Settings: result in words, known from the literature

Sequence of p38 (Q16539 whole entry): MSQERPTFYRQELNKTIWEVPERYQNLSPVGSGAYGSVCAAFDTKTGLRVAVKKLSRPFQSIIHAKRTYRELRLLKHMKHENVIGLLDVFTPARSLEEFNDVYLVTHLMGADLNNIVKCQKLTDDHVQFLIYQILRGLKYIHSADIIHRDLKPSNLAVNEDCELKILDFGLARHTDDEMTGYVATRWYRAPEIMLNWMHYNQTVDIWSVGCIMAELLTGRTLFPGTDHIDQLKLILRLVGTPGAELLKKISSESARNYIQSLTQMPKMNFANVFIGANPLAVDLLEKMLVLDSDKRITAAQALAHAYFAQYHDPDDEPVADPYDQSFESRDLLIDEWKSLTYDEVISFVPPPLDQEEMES

SMILES	p38 inhibition activity
O=C(C(=C1SCS1)c1ccncc1)c1ccc(OC(F)(F)F)cc1 [Cmp-59076, 2-[1,3]Dithietan-2-pyridin-4-yl-1-(4-trifluoromethoxy-phenyl)-ethanone]	no p38 inhibition activity
Fc1ccc(-c2nc3n(c2-c2ccncc2)CCS3)cc1 [SKF-86002]	potent p38 inhibitors
